Positions of bridges follow the written chain, without caps; N, C: chain ends. Non-standard residues stand in square brackets, D forms with d. Residues, ends and D or L forms follow the SMILES beside them. Chains are numbered I, II in the order given. *: point of attachment. PEG6 = NCCOCCOCCOCCOCCOCCOCCC(=O)O; Palmitoyl = CCCCCCCCCCCCCCCC(=O)*
How the values were obtained:
MAPK pathway (pErk 1/2) = test: MAPK pathway activation, western blot of phosphorylated Erk (pErk 1/2); type: cell-based, mouse; settings: 6 h of treatment, vs control conditions
Procedure: (§1) For western blot, cells were cultured in 6 well plates at a density of approximately 900,000 cells/well for 14 DIV before being treated. Treatments were added for 2, 4, 6, 8, 12 or 24 h in vitro before protein was harvested. For TrkB inhibitor studies, cells were cultured for 14 DIV and then treated with a TrkB specific inhibitor, K-252a (Sigma Aldrich), for 1 hour prior to being treated with the different conditions mentioned above. Protein was extracted after six hours of treatment.
(§2) Western Blot. Protein was extracted from primary neuronal cultures with Halt Protease and Phosphatase Inhibitor Cocktail (Thermo Scientific) and a BCA assay (Thermo Scientific) was performed to determine protein content of each sample. Cell protein was loaded into and separated using a 4-20% SDS-PAGE gel (Bio-Rad). It was then electrotransferred from the gel to a nitrocellulose membrane (Bio-Rad). The membranes were blocked with 5% milk solution (Bio-Rad) for 30 minutes followed by an overnight incubation with primary antibodies at 4° C. […] Protein signals were detected using Radiance Bioluminescent ECL substrate (Azure Biosystems). Densitometry analysis, standardized to total receptor content or Actin as a control for protein loading, was performed using ImageJ software.^3 For quantification, triplicate samples were analyzed and at least two different experiments were conducted.

[1] = system: primary mouse cortical neurons; test: Multi-electrode array (MEA) electrophysiology of neuronal cultures; type: cell-based; settings: for spontaneous firing frequency: 30 days in vitro, relative to control condition; for network burst duration / spikes per network burst: over time, vs control media
Procedure: Electrophysiology—Multi Electrode Array (MEA) Plates. For 2D electrophysiology studies, 12 well MEA plates with 64 electrodes per well were coated with PEI and laminin according to Axion Biosystems protocols.^5 Embryonic primary neurons were seeded at a density of 60,000 cells/well and cultured during 14 DIV. On day 14, cells were treated with BDNF protein, BDNF PA, BDNF Peptide, or starvation media. Every 5 days, half of the media was removed from each well and replaced with fresh media containing additional treatment. Spontaneous network and synchronized activity was recorded using Axion Biosystems Maestro 768 channel amplifier and Axion Integrated Studios (AxIS) v2.4 software. The amplifier recorded from all channels simultaneously using a gain of 1200× and a sampling rate of 12.5 kHz/channel. After passing the signal through a Butterworth band-pass filter (300-5000 Hz) on-line spike detection (threshold=6× the root-mean-square of noise on each channel) was done with the AxIS adaptive spike detector. All recordings were conducted at 37° C. with appropriate 5% CO2/95% O2. Spontaneous network activity was recorded for 5 min each day starting at 10 DIV. Active electrodes were defined as having >5 spikes/min and only wells with over 10 active electrodes during the baseline-recording period were used in the analysis. Synchronized activity was defined as spike and burst activity that occurred on 25% of the electrodes or more in a well within 100 ms of each other. […] All data reflects well-wide averages, where the reported value of n represents the number of wells per condition.

PI3K pathway (pAKT) = test: PI3K pathway activation, western blot of phosphorylated AKT (pAKT); type: cell-based, mouse; settings: 6 h of treatment, vs control conditions
Procedure: as §1, §2

Molecule | activation of the MAPK pathway (pErk 1/2) (MAPK pathway (pErk 1/2)) | spontaneous firing frequency [1] | network burst duration [1] | spikes per network burst [1] | activation of the PI3K pathway (pAKT) (PI3K pathway (pAKT))
CCCCCCCCCCCCCCCC(=O)N[C@H](C(=O)N[C@H](C(=O)N[C@@H](C)C(=O)N[C@@H](C)C(=O)N[C@@H](CCC(=O)O)C(=O)N[C@@H](CCC(=O)O)C(=O)N[C@@H](CCC(=O)O)C(=O)N[C@@H](CCC(=O)O)C(=O)NCCOCCOCCOCCOCCOCCOCCC(=O)NCCCC[C@@H]1NC(=O)[C@H]2CCCN2C(=O)[C@H](CCCNC(=N)N)NC(=O)[C@H](CCCCN)NC(=O)[C@H](CCCCN)NC1=O)C(C)C)C(C)C [BDNF PA, RKK(aK)(dP)-(PEG6 Spacer)-EEEEAAVV-C16 (SEQ ID NO: 5)] (I: Palmitoyl-VVAAEEEE[PEG6] / II: cyclo(KKKR[dP]); amide I:C-II:1) | marked increase in activation | increased spontaneous firing frequency relative to the control condition | longer network bursts | significantly more spikes per network burst | marked increase in activation
BDNF protein: Human/Murine/Rat BDNF protein (Peprotech) (protein, UniProt P23560 19-247, looked up) Neurotrophic factor BDNF …: APMKEANIRGQGGLAYPGVRTHGTLESVNGPKAGSRGLTSLADTFEHVIEELLDEDQKVRPNEENNKDADLYTSRVMLSSQVPLEPPLLFLLEEYKNYLDAANMSMRVRRHSDPARRGELSVCDSISEWVTAADKKTAVDMSGGTVTVLEKVPVSKGQLKQYFYETKCNPMGYTKEGCRGIDKRHWNSQCRTTQSYVRALTMDSKKRIGWRFIRIDTSCVCTLTIKRGR | marked increase in activation | increased spontaneous firing frequency relative to the control condition | longer network bursts | significantly more spikes per network burst | marked increase in activation

— patent US12122811B2, “BDNF mimetic peptide amphiphiles” (Northwestern University, priority 2018, dated 2024)
